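Each compound was tested at five concentrations against cells in 96-well plates for 48 hours. GI50 marks 50% less growth.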 The source made the active and inactive calls. No stated cut-off is given here; in the data, active = GI50 up to about 1.1 µM and inactive = higher.
Tests used:
Assay in all cases: NCI-60 cell line screen, 48 h
A498 = system: A498
A549 = system: A549
COLO 205 = system: COLO 205
EKVX = system: EKVX
HOP-92 = system: HOP-92
HT-29 = system: HT-29
K562 = system: K562
NCI-H23 = system: NCI-H23
NCI-H460 = system: NCI-H460
OVCAR-3 = system: OVCAR-3
OVCAR-5 = system: OVCAR-5
RPMI-8226 = system: RPMI-8226
RXF 393 = system: RXF 393
SF-295 = system: SF-295
SF-539 = system: SF-539
SK-MEL-28 = system: SK-MEL-28
SNB-75 = system: SNB-75
SR = system: SR
TK-10 = system: TK-10
HCC 2998 = system: HCC 2998

Measured: GI50

OCC(CO)C1c2cccc3ccc4cccc1c4c23
inactive: A498 > 100 µM | A549 > 100 µM | COLO 205 > 100 µM | EKVX 87.9 µM | HOP-92 80.9 µM | HT-29 > 100 µM | K562 > 100 µM | NCI-H23 > 100 µM | NCI-H460 > 100 µM | OVCAR-3 > 100 µM | OVCAR-5 > 100 µM | RPMI-8226 > 100 µM | RXF 393 > 100 µM | SF-295 > 100 µM | SF-539 > 100 µM | SK-MEL-28 > 100 µM | SNB-75 54.1 µM | SR > 100 µM | TK-10 > 100 µM

CCOC(=O)/C=C(/C(=O)OCC)n1ccc(=O)n(Cc2cn(CCCCOC(C)=O)nn2)c1=O
inactive: A549 > 100 µM | COLO 205 31.8 µM | EKVX > 100 µM | HCC 2998 > 100 µM | HOP-92 6.65 µM | HT-29 > 100 µM | K562 55 µM | NCI-H23 > 100 µM | NCI-H460 > 100 µM | OVCAR-3 > 100 µM | OVCAR-5 > 100 µM | RPMI-8226 89.3 µM | RXF 393 > 100 µM | SF-295 > 100 µM | SF-539 > 100 µM | SK-MEL-28 > 100 µM | SNB-75 > 100 µM | SR > 100 µM | TK-10 58.2 µM

COC(=O)OCC1OC(N2C(=O)NC(=O)C(I)C2N=[N+]=[N-])CC1OC(=O)OC (stereo unspecified)
inactive: A549 > 100 µM | COLO 205 > 100 µM | HCC 2998 > 100 µM | HOP-92 > 100 µM | HT-29 > 100 µM | K562 > 100 µM | NCI-H23 > 100 µM | NCI-H460 > 100 µM | OVCAR-3 > 100 µM | OVCAR-5 > 100 µM | RPMI-8226 > 100 µM | RXF 393 > 100 µM | SF-295 > 100 µM | SF-539 > 100 µM | SK-MEL-28 > 100 µM | SNB-75 > 100 µM | SR > 100 µM | TK-10 > 100 µM

O=[N+]([O-])c1ccc(N2CCC(CCCC3CCN(c4ccc([N+](=O)[O-])cc4[N+](=O)[O-])CC3)CC2)c([N+](=O)[O-])c1
inactive: A498 17 µM | A549 16.4 µM | COLO 205 14.2 µM | EKVX 15.8 µM | HOP-92 11 µM | HT-29 8.11 µM | K562 22.3 µM | NCI-H23 21.2 µM | NCI-H460 14.3 µM | OVCAR-3 18 µM | OVCAR-5 16.4 µM | RPMI-8226 13.4 µM | RXF 393 15.3 µM | SF-295 17.4 µM | SF-539 18.4 µM | SK-MEL-28 12.7 µM | SNB-75 14.7 µM | SR 27 µM | TK-10 16.9 µM

CC(C)(C)/N=N/C(C)(C)N=C=O
inactive: A498 > 100 µM | A549 > 100 µM | COLO 205 > 100 µM | EKVX 99.8 µM | HOP-92 > 100 µM | HT-29 > 100 µM | K562 > 100 µM | NCI-H23 > 100 µM | NCI-H460 > 100 µM | OVCAR-3 > 100 µM | OVCAR-5 > 100 µM | RPMI-8226 > 100 µM | RXF 393 > 100 µM | SF-295 60.1 µM | SF-539 > 100 µM | SK-MEL-28 > 100 µM | SNB-75 > 100 µM | SR > 100 µM | TK-10 > 100 µM

CCOC(=O)c1sc2c(C(=O)OCC)n3cc(C)cc(C)c3c2c1O
inactive: A549 > 100 µM | COLO 205 > 100 µM | EKVX 29.5 µM | HCC 2998 > 100 µM | HOP-92 76.4 µM | HT-29 > 100 µM | K562 > 100 µM | NCI-H23 > 100 µM | NCI-H460 > 100 µM | OVCAR-3 63.2 µM | OVCAR-5 > 100 µM | RXF 393 > 100 µM | SF-295 > 100 µM | SF-539 > 100 µM | SK-MEL-28 > 100 µM | SNB-75 58.7 µM | SR > 100 µM | TK-10 > 100 µM

COC1CC(OC)C(O)C(CO)O1 (stereo unspecified)
inactive: A549 > 100 µM | EKVX > 100 µM | HCC 2998 > 100 µM | HT-29 > 100 µM | K562 > 100 µM | NCI-H23 > 100 µM | NCI-H460 > 100 µM | OVCAR-3 > 100 µM | OVCAR-5 > 100 µM | RXF 393 > 100 µM | SF-295 > 100 µM | SF-539 > 100 µM | SK-MEL-28 > 100 µM | SNB-75 > 100 µM | SR > 100 µM | TK-10 > 100 µM

CCC1(CC)C(=O)NN(C(=O)c2ccccc2)C1=O
inactive: A549 > 100 µM | COLO 205 > 100 µM | EKVX > 100 µM | HCC 2998 > 100 µM | HT-29 > 100 µM | K562 > 100 µM | NCI-H23 > 100 µM | NCI-H460 > 100 µM | OVCAR-3 > 100 µM | OVCAR-5 > 100 µM | RPMI-8226 > 100 µM | RXF 393 > 100 µM | SF-295 > 100 µM | SK-MEL-28 > 100 µM | SNB-75 49.4 µM | SR > 100 µM | TK-10 > 100 µM

Cc1cc2c(c(C(=O)NCC(=O)O)c1)Oc1c(cc(C)cc1C(=O)NCC(=O)O)S2
inactive: A549 > 100 µM | COLO 205 > 100 µM | EKVX > 100 µM | HCC 2998 > 100 µM | HOP-92 > 100 µM | HT-29 > 100 µM | K562 > 100 µM | NCI-H23 > 100 µM | OVCAR-3 > 100 µM | OVCAR-5 > 100 µM | RPMI-8226 > 100 µM | RXF 393 > 100 µM | SF-295 > 100 µM | SF-539 > 100 µM | SK-MEL-28 > 100 µM | SNB-75 > 100 µM | SR > 100 µM | TK-10 > 100 µM

CCCCN(CC)C(=O)C(=O)Cc1nc2ccc(C(=O)c3ccccc3)cc2nc1O
inactive: A498 > 100 µM | A549 > 100 µM | COLO 205 > 76.2 µM | EKVX > 63.2 µM | HOP-92 53 µM | HT-29 57.5 µM | K562 19.1 µM | NCI-H23 57.9 µM | NCI-H460 13.6 µM | OVCAR-3 > 100 µM | OVCAR-5 > 100 µM | RPMI-8226 27 µM | RXF 393 25.5 µM | SF-295 59 µM | SF-539 98.9 µM | SK-MEL-28 73.3 µM | SNB-75 25.8 µM | SR 21.6 µM | TK-10 > 84.5 µM

CC(CCCC1SCC2NC(=O)NC21)C(=O)O (stereo unspecified)
inactive: A498 > 100 µM | A549 > 100 µM | COLO 205 > 100 µM | EKVX > 100 µM | HOP-92 > 100 µM | HT-29 > 100 µM | K562 > 100 µM | NCI-H23 > 100 µM | NCI-H460 > 100 µM | OVCAR-3 > 100 µM | OVCAR-5 > 100 µM | RPMI-8226 > 100 µM | RXF 393 > 100 µM | SF-295 > 100 µM | SF-539 > 100 µM | SK-MEL-28 > 100 µM | SNB-75 > 100 µM | SR > 100 µM | TK-10 > 100 µM
